From patent US5854250A, “N-benzoylamino acid derivatives, pharmaceutical compositions containing them and process of preparing same” (Gyogyszerkutato Intezet KFT, priority 1997, dated 1998)

Experiments:
arachidonic acid = assay: iron(II)-dependent peroxidation of arachidonic acid; format: biochemical; conditions: 37° C., in methanol; iron(II) initiated; thiobarbituric acid-reactive products, 535 nm; read-out: IC50 on arachidonic acid substrate
Protocol: A) The effect of compounds of general formula (I) on the iron(II)-dependentperoxidation of arachidonic acid
The peroxidation of arachidonic acid was measured by using the method of J. M. Braughler [J. Biol. Chem. 262, 10438 (1986)] at 37° C. in methanol. The compound to be tested was investigated at various concentrations. The peroxidation was initiated by adding 10^-4 mol of iron(II) (ferrous) ion (to result in a final volume of 0.5 ml).
(§1) The thiobarbituric acid-reactive products were determined by a modification of J. A. Buege [Meth. Enzymology 52, 302 (1978)] as follows. 0.55 ml of 2% thiobarbituric acid was added to the solution and the samples were boiled for 20 minutes. After cooling down, the samples were diluted with distilled water, then chloroform was added. After centrifuging the tubes at 400×g for 7 minutes, the quantity of the thiobarbituric acid-reactive products was determined in the supernatant by spectrophotometry at 535 nm. The effect of the compound to be tested was characterized by its IC50 value (i.e. the concentration resulting in an 50% inhibition). α-Tocopherol was used as reference compound.

[1] = acute oral toxicity in rats; conditions: rat, in vivo
From the text: The toxicity of the compounds according to the invention was studied in rats.

brain microsomes = assay: NADPH-dependent peroxidation of brain microsomes; format: biochemical, OFA rats; conditions: rat brain microsomes, pH 6.8, 15 minutes, read-out: IC50 on brain microsome
Protocol: C) The effect of compounds of general formula (I) on the NADPH-dependent peroxidation of brain microsomes
This study was carried out by using the method of T. J. Player and A. A. Morton [J. Neurochem. 37, 422 (1981)].
OFA rats of 3 months age were decapitated and their whole brain was homogenized in ice-cold 0.25M saccharose solution. After centrifuging the homogenate at 15000×g for 10 minutes, the supernatant was decanted and the residue was further centrifuged at 78000×g for 60 minutes. The preparation having a concentration of 10-20 mg of protein/ml was divided to aliquots.
2) Measurement of the microsomal lipid peroxidatiorn
The measurement was carried out at […] in a reaction mixture with the following composition; 0.05M Tris maleate (pH 6.8) buffer, 1.0 mM KH2 SO4, 1.0 mM ADP, 0.2 mM FeCl3 and 0.4 mM NAOPH. NAOPH was not added to the reaction mixture used for determination of the baseline activity. The reaction was initiated […] by adding 0.5 mg of membrane protein and stopped after incubation for 15 minutes. Subsequently, the samples were centrifuged at 950×g for 20 minutes. The thiobarbituric acid-reactive products were determined in 1 ml of supernatant each by using the method of Z. Dunied [Biochem. Pharmacol. 32, 2283 (1983)].

small intestine section = assay: ischaemic intestine injury in rats; format: in vivo, Male CFY rats; conditions: Rattus norvegicus; 25 mg/kg oral, 2 hours before the operation; read-out: Inhibition of ischaemia (%)
Protocol: A) Effect of compounds of the general formula (I) on the ischaemic intestine injury in rats
The method of D. A. Parks et al. [Surgery 92, 869 (1985)] was employed in these experiments.
Male CFY rats with an average body-weight of 250 g were starved for 24 hours before the surgical intervention but water was allowed ad libitum. The compound to be tested was orally administered in a 25 mg/kg dose by 2 hours before the operation.
The abdominal wall was opened along the median line under ether anaesthesia. The appropriate small intestine section was made ischaemic by ligating both small branches belonging to the pancreatico-duodenal artery. The shame-operated control animals were subjected only to the surgical intervention but their blood vessels were not ligated. The wound was closed and after 2 hours the abdominal cavity of the animals was again opened under ether anaesthesia. The thickened intestinal section was removed, its length and weight were determined and the significance was calculated by Duncan's test [D. B. Duncan: Biometrics 11, 1 (1955)] (with the weights corrected for a length of 20 mm) on the one hand, between the sham-operated and ischaemized vehicle-control animals; and on the other hand, between the ischaemized control animals and ischaemized animals treated with the compound to be tested. The edema-induced weight increase in the intestinal section was expressed as percentage.

brain homogenate = assay: iron(II) ion-dependent peroxidation of brain homogenate; format: biochemical, OFA rats; conditions: rat brain homogenate in Krebs buffer; iron(II) initiated
Protocol: as §1
B) The effect of compounds of general formula (I) on the iron(II) ion-dependent peroxidation of brain homogenate
The measurement was carried out by using the method of J. M. Braughler [J. Biol. Chem. 262, 10438 (1987)].
In these experiments OFA rats with a body-weight of 150-200 g were decapitated and brain homogenates were prepared in Krebs buffer solution, then the Method A) was followed.

[2] = tested on: dopamine level of corpus striatum; assay: neurotoxicity-inhibiting effect in mice (MPTP-induced dopamine depletion); format: in vivo, Male C-57 mice; conditions: for Dopamine level: then 50 mg/kg
Protocol: C) Study on the neurotoxicity-inhibiting effect in mice This study was carried out by using the method of R. E. Heikkila at al. [Science 224, 1451 (1984)] or by some modification of this method being very suitable to investigate compounds which are potentially active against Parkinson's disease. […] MPTP). […] One hour after the last administration, 40 mg/kg of MPTP and then an additional amount of 50 mg/kg of the compound to be tested were intraperitoneally administered. The animals were killed after 4 days, their brain was removed and the corpus striatum was separated. The dopamine level of corpus striatum was determined by high performance liquid chromatography (HPLC).

[3] = tested on: heart-damaging effect of vasopressin; conditions: G. Razzaboni et al.; cited from earlier work
lipid peroxidation = conditions: J. M. Braughler et al.; cited from earlier work
[4] = cited from earlier work
[5] = tested on: reperfusion-induced arrhythmia; assay: reperfusion-induced arrhythmia in rats; format: in vivo, male SPRD rats; conditions: for Average duration of VT/VF: one hour before, S ± SE/min
Protocol: B) Investigations on the model of reperfusion-induced arrhythmia in rats
In these experiments, the reperfusion-induced arrhythmia was developed in male SPRD rats weighing 400 g in average by using the method Lamontagne et al. [Fundam. Clin. Pharmacol. 3, 671 (1989)].
The chest of artificially respirated animals was opened under pentobarbital anaesthesia and a thread was implanted under the left coronary. After an equilibration period of 15 minutes, in the case of an arterial blood pressure of at least 60 Hgmm, a myocardial ischaemia was induced by ligating the coronary for 5 minutes. This was followed by a reperfusion lasting for 10 minutes. The duration of arrhythmia, ventricular tachycardia (VT) and ventricular fibrillation (VF), respectively, developed within 3 minutes after reperfusion were registered in a lead-II ECG.
The average durations of VT and VF, respectively related to 1 minute were determined and the number of deaths induced by arrhythmia was also registered.
The compound to be tested was orally administered one hour before the experiment.
The statistical data were calculated by using Duncan's test (duration of VT and VF, respectively) or the chi^2 test (number of deaths) [S. Bolton in: "Pharmaceutical Statistics", pages 169-173 (1990), Marcel Dekkar] following the variance analysis in relation to the vehicle control.

[6] = with MPTP treatment (+), 40 mg/kg, compound 100 mg/kg i.p. once daily for 3 days, a p < 0.01, b p < 0.05 vs MPTP control
[7] = without MPTP treatment (-), 100 mg/kg i.p. once daily for 3 days

With `O=C(O)CCCCCCCCCCCNC(=O)c1cc(O)ccc1O` [Example 24] the IC50 (arachidonic acid) was 40 µM, the LD50 [1] was > 1000 mg/kg and the IC50 (brain microsomes) was 37 µM. For the same compound, the inhibition in vivo at 25 mg/kg (small intestine section) was 63%, the IC50 (brain homogenate) was 4.8 µM and the “Dopamine level, % of control” value ([2]; with MPTP treatment (+)) was 24%. For the same compound, the Dopamine level [2, 6] was 4,85 ± 1,7 μg/g tissue, the “Dopamine level, % of control” value ([2]; without MPTP treatment (-)) was 102% and the Dopamine level [2, 7] was 20,44 ± 0,6 μg/g tissue.
In the case of `O=C(NCCCCCC(=O)N1CCN(c2cc(N3CCCC3)nc(N3CCCC3)n2)CC1)c1cc(O)ccc1O` [Example 35], the IC50 (arachidonic acid) is reported as 27 µM, the LD50 [1] is reported as > 1000 mg/kg and the IC50 (brain microsomes) is reported as 5.3 µM. It also gave an inhibition in vivo at 25 mg/kg (small intestine section) of 63% and an IC50 (brain homogenate) of 3.3 µM.
In the case of `COc1cc(C(=O)NCCCCCC(=O)O)ccc1O` [6-(4-hydroxy-3-methoxybenzoyl)aminohexanoic acid], the “activity against the heart-damaging effect of vasopressin” value [3] is given as “inactive”.
In the case of `CCOC(=O)CCCCCCCCCCNC(=O)c1cc(O)ccc1O` [Example 31, ethyl 11-[N-(2,5-dihydroxybenzoyl)amino]undecanoate], the IC50 (arachidonic acid) is reported as 100 µM, the IC50 (brain microsomes) is reported as 6.6 µM and the IC50 (brain homogenate) is reported as 16 µM.
In the case of `C[C@@H]1C[C@H]2[C@@H]3CCC4=CC(=O)C=C[C@]4(C)C3=CC[C@]2(C)[C@H]1C(=O)CN1CCN(c2cc(N3CCCC3)nc(N3CCCC3)n2)CC1` [Example U74006F], the “inhibition of lipid peroxidation” value (lipid peroxidation) is given as “strongly inhibited” and the in vivo activity [4] is given as “proven”.
Compound `O=C(NCCCCCC(=O)N1CCN(CCCc2ccccc2)CC1)c1cc(O)ccc1O` [Example 34] has an IC50 (arachidonic acid) of 100 µM, an IC50 (brain microsomes) of 8.6 µM and an IC50 (brain homogenate) of 40 µM.
In the case of `O=C(O)CCCCNC(=O)c1cc(O)ccc1O` [Example 37], the IC50 (arachidonic acid) is reported as 31 µM, the LD50 [1] is reported as > 1000 mg/kg and the IC50 (brain microsomes) is reported as 100 µM. It also gave an inhibition in vivo at 25 mg/kg (small intestine section) of 73% and an IC50 (brain homogenate) of 100 µM.
With `O=C(O)CCCNC(=O)c1cc(O)ccc1O` [Example 36, 4-[N-(2,5-dihydroxybenzoyl)amino]butyric acid] the IC50 (arachidonic acid) was 3.4 µM, the LD50 [1] was > 1000 mg/kg and the “No. of deaths (lethal VT/VF)” value ([5]; 50 mg/kg p.o.) was 4/8. For the same compound, the “Average duration of VT/VF” value ([5]; 50 mg/kg p.o.) was 33.0 ± 9.9 S/min, the “Average duration of VT/VF” value ([5]; 100 mg/kg p.o., **p < 0.01) was 20.6 ± 6.3 S/min and the “No. of deaths (lethal VT/VF)” value ([5]; 100 mg/kg p.o., *p < 0.05) was 0/10. The IC50 (brain microsomes) was 100 µM, the inhibition in vivo at 25 mg/kg (small intestine section) was 76% and the IC50 (brain homogenate) was 100 µM. For the same compound, the “Dopamine level, % of control” value ([2]; with MPTP treatment (+)) was 33%, the Dopamine level [2, 6] was 6,68 ± 1,0 μg/g tissue and the “Dopamine level, % of control” value ([2]; without MPTP treatment (-)) was 103%. For the same compound, the Dopamine level [2, 7] was 20,67 ± 0,5 μg/g tissue.
With `Cc1c(C)c2c(c(C)c1O)CCC(C)(CCCC(C)CCCC(C)CCCC(C)C)O2` (stereo not drawn) [α-Tocopherol, reference compound] the IC50 (arachidonic acid) was 1.5 µM, the “Average duration of VT/VF” value ([5]; 100 mg/kg p.o., **p < 0.01) was 33.1 ± 7.1 S/min and the “No. of deaths (lethal VT/VF)” value ([5]; 100 mg/kg p.o., *p < 0.05) was 4/8. For the same compound, the “Average duration of VT/VF” value ([5]; 250 mg/kg p.o., **p < 0.01) was 27.2 ± 7.1 S/min, the “No. of deaths (lethal VT/VF)” value ([5]; 250 mg/kg p.o., *p < 0.05) was 1/8 and the IC50 (brain microsomes) was > 100 µM. For the same compound, the IC50 (brain homogenate) was 7 µM.
In the case of `CCCCCCCCNC(=O)CCCCCNC(=O)c1cc(O)ccc1O` [Example 29], the IC50 (arachidonic acid) is reported as 100 µM, the LD50 [1] is reported as > 1000 mg/kg and the IC50 (brain microsomes) is reported as 4.5 µM. For the same compound, the inhibition in vivo at 25 mg/kg (small intestine section) was 52% and the IC50 (brain homogenate) was 9 µM.
Work on `COC(=O)CCCNC(=O)c1cc(O)ccc1O` [Example 40, methyl 4-[N-(2,5-dihydroxybenzoyl)amino]butanoate] yielded an inhibition in vivo at 25 mg/kg (small intestine section) of 72%.
For `COC(=O)CCCCCNC(=O)c1cc(O)ccc1O` [Example 41, Methyl 6-{[N-(2,5-dihydroxybenzoyl)amino]hexanoate}], the inhibition in vivo at 25 mg/kg (small intestine section) was 75%.
With `O=C(O)CCCCCNC(=O)c1cc(O)ccc1O` [Example 25] the IC50 (arachidonic acid) was 15 µM, the LD50 [1] was > 1000 mg/kg and the “No. of deaths (lethal VT/VF)” value ([5]; 50 mg/kg p.o.) was 4/8. For the same compound, the “Average duration of VT/VF” value ([5]; 50 mg/kg p.o.) was 37.3 ± 5.7 S/min, the “Average duration of VT/VF” value ([5]; 100 mg/kg p.o., **p < 0.01) was 28.0 ± 5.1 S/min and the “No. of deaths (lethal VT/VF)” value ([5]; 100 mg/kg p.o., *p < 0.05) was 1/10. It also gave an IC50 (brain microsomes) of 100 µM, an inhibition in vivo at 25 mg/kg (small intestine section) of 61% and an IC50 (brain homogenate) of 100 µM.
`O=C(NCCCCCC(=O)N1CCCC1=O)c1cc(O)ccc1O` [Example 30] showed an inhibition in vivo at 25 mg/kg (small intestine section) of 70%.
With `CCOC(=O)CCCCCCCCCCCNC(=O)c1cc(O)ccc1O` [Example 32] the IC50 (arachidonic acid) was 100 µM, the IC50 (brain microsomes) was 7.9 µM and the IC50 (brain homogenate) was 12 µM.
